Laboratory results taken from the supplement of paper PMC10307832.

Key:
Experiment in all cases: relative viability (nuclei count vs DMSO), 5 days (fraction); higher = more cells survive
QS11 + Lapatinib = compound: C1CC2=C(C1)C=C(C=C2)OC3=NC(=C4C(=N3)N(C=N4)CC5=CC=C(C=C5)C6=CC=CC=C6)N[C@@H](CC7=CC=CC=C7)CO [QS11] + CS(=O)(=O)CCNCc1ccc(-c2ccc3ncnc(Nc4ccc(OCc5cccc(F)c5)c(Cl)c4)c3c2)o1 [Lapatinib] (partner 2 µM)
Outline: (§1)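 Lung cancer cell lines in 1536-well plates got either a single drug or a fixed anchor-drug dose together with five library-drug doses (not always all listed) in √10 steps, by pin tool, on the day after seeding. Nuclei were counted after 5 days, and relative viability is the treated-to-vehicle ratio of nuclei counts. Values are medians of duplicate plates.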

[1] = compound: C[As](C)SC[C@H](NC(=O)CC[C@H](N)C(=O)O)C(=O)NCC(=O)O [Darinaparsin] + CC(=O)Nc1cccc(-n2c(=O)n(C3CC3)c(=O)c3c(Nc4ccc(I)cc4F)n(C)c(=O)c(C)c32)c1 [Trametinib] (partner 0.02 µM)
Outline: as §1

[2] = compound: C[As](C)SC[C@H](NC(=O)CC[C@H](N)C(=O)O)C(=O)NCC(=O)O [Darinaparsin] + CC(=O)c1c(C)c2cnc(Nc3ccc(N4CCNCC4)cn3)nc2n(C2CCCC2)c1=O [Palbociclib] (partner 0.5 µM)
Outline: as §1

[3] = compound: C[As](C)SC[C@H](NC(=O)CC[C@H](N)C(=O)O)C(=O)NCC(=O)O [Darinaparsin] + C[C@@H](Oc1cc(-c2cnn(C3CCNCC3)c2)cnc1N)c1c(Cl)ccc(F)c1Cl [Crizotinib] (partner 1 µM)
Outline: as §1

Row | Cell Line | relative viability (QS11 + Lapatinib; first compound 0.08 µM) | relative viability (QS11 + Lapatinib; first compound 0.253 µM) | relative viability (QS11 + Lapatinib; first compound 0.8 µM) | relative viability (QS11 + Lapatinib; first compound 2.53 µM) | relative viability (QS11 + Lapatinib; first compound 8 µM) | relative viability ([1]; first compound 0.08 µM) | relative viability ([1]; first compound 0.8 µM) | relative viability ([1]; first compound 2.53 µM) | relative viability ([1]; first compound 8 µM) | relative viability ([2]; first compound 0.08 µM) | relative viability ([2]; first compound 0.8 µM) | relative viability ([2]; first compound 2.53 µM) | relative viability ([2]; first compound 8 µM) | relative viability ([3]; first compound 0.08 µM) | relative viability ([3]; first compound 0.8 µM) | relative viability ([3]; first compound 2.53 µM) | relative viability ([3]; first compound 8 µM)
1 | NCI-H1437 | 0.832 | 0.846 | 0.581 | 0.704 | 0.598 | 0.594 | 0.562 | 0.505 | 0.674 | 0.321 | 0.307 | 0.328 | 0.338 | 1.23 | 0.865 | 0.716 | 1.32
2 | NCI-H838 | 0.944 | 0.918 | 0.68 | 0.899 | 0.904 | 0.54 | 0.458 | 0.504 | 0.666 | 0.245 | 0.216 | 0.229 | 0.229 | 0.996 | 0.803 | 0.776 | 0.976
3 | NCI-H650 | 0.83 | 0.907 | 1.13 | 0.801 | 0.667 | 0.856 | 1.01 | 1.04 | 0.956 | 0.325 | 0.331 | 0.339 | 0.322 | 0.861 | 0.574 | 0.683 | 0.899
4 | LK-2 | 1.04 | 1.15 | 1 | 0.829 | 1.3 | 0.936 | 0.61 | 0.847 | 0.878 | 1 |  | 0.815 | 0.989 | 0.208 |  | 0.208 | 0.196
5 | NCI-H520 |  | 1.05 | 0.863 | 0.99 | 1.13 | 0.883 | 0.718 | 0.669 | 0.697 | 0.149 | 0.208 | 0.216 | 0.248 | 0.873 | 0.759 | 0.515 | 0.924
6 | H3255 | 0.261 | 0.236 |  | 0.24 | 0.234 | 0.595 | 0.812 | 0.574 | 0.62 | 0.303 | 0.313 | 0.329 | 0.294 | 1.14 | 0.773 | 0.789 | 0.895
7 | PC-14 | 0.277 | 0.315 | 0.257 | 0.249 | 0.329 | 1.08 | 0.798 | 0.741 | 0.923 | 0.661 | 0.53 | 0.365 | 0.462 | 1.26 | 0.797 | 0.72 | 1.01
8 | HCC-78 | 0.577 | 0.876 | 0.699 | 0.627 | 0.847 | 0.823 | 0.673 | 0.879 | 1.24 | 0.46 | 0.509 | 0.475 | 0.503 | 0.36 | 0.316 | 0.332 | 0.348
9 | CAL-12T | 0.631 | 0.601 | 0.595 | 0.652 | 0.68 | 0.333 | 0.376 | 0.383 | 0.306 | 0.446 | 0.387 | 0.408 | 0.478 | 0.902 | 0.752 | 0.391 | 0.707
10 | NCI-H3122 | 1.03 | 1.14 | 0.71 | 1.16 | 0.824 | 0.231 | 0.208 | 0.216 | 0.347 | 0.19 | 0.223 | 0.223 | 0.201 | 0.336 | 0.258 | 0.251 | 0.289
11 | NCI-H661 | 0.474 | 0.45 | 0.632 | 0.354 | 0.463 | 0.646 | 0.618 | 0.532 | 0.677 | 0.385 | 0.355 | 0.442 | 0.404 | 1.08 | 1.11 | 0.929 | 1.1
12 | NCI-H727 | 1 | 0.714 | 0.892 | 0.665 | 0.639 | 0.372 | 0.397 | 0.381 | 0.383 | 0.692 | 0.573 | 0.698 | 0.585 | 0.713 | 0.786 | 0.77 | 0.988
13 | NCI-H1666 | 0.607 | 0.398 | 0.542 | 0.578 | 0.42 | 1.03 | 0.845 | 0.858 | 0.912 | 0.666 | 0.673 | 0.634 | 0.678 | 0.904 | 0.927 | 1.02 | 1.14
14 | COR-L23 | 1.1 | 1.08 | 0.68 | 0.582 | 0.849 | 0.699 | 0.581 | 0.538 | 0.681 | 0.303 | 0.335 | 0.246 | 0.299 | 0.818 | 0.648 | 0.601 | 0.661
15 | NCI-H460 | 1.4 | 1.14 | 0.567 | 0.686 | 0.24 | 0.312 | 0.329 | 0.12 | 0.166 | 0.147 | 0.176 | 0.117 | 0.181 |  | 0.91 | 0.607 | 1.56
16 | SK-MES-1 | 0.475 | 0.432 | 0.498 | 0.457 | 0.45 | 0.558 | 0.521 | 0.551 | 0.61 | 0.308 | 0.303 | 0.298 | 0.314 | 1.19 | 1.04 | 0.838 | 1.11
17 | LC-2-ad | 0.91 | 1.09 | 0.627 | 1.04 | 0.921 | 0.975 | 0.903 | 0.815 | 1.08 | 0.554 | 0.523 | 0.383 | 0.602 | 0.524 | 0.459 | 0.447 | 0.383
